Reference: publication PMC11011327 (International Journal of Molecular Sciences, 2024)
Read-outs that look alike come from different tables or passages of the source. Residues, ends and D or L forms follow the SMILES beside them. No end group written: not given here.

Columns and labels:
[1] = tested on: TNF-induced cytotoxicity, L929 cells; experiment: Inhibition of cytotoxic activity of TNF on L929 cells; assay type: cell-based; conditions: TNF 1 nM, peptide 10 nM, n = 5, TNF preincubated with TNFR1 peptide / cells preincubated with TNFL; for apoptotic cytotoxic activity of TNF in the presence of peptide: 3 h; for necroptotic cytotoxic activity of TNF in the presence of peptide: 20 h
Protocol: (§1) Next, we investigated how this interaction affects the cytotoxic activity of TNFR1 ligands. […] Cell apoptosis is a fast process of several hours. During necroptosis, cell death processes take place after a few dozen hours. Taking into account this ability of TNFR1 to participate in the induction of alternative cytotoxic pathways that develop at different time intervals, cytotoxic activity was determined after 3 h and after 20 h (Figure 4). […] It can be assumed that the inhibition of the cytotoxic effect of the ligands is associated with the competition of a 12-membered peptide with the cell surface receptor on for binding to the ligands.

L929 cells [2] = tested on: L929 cells
Protocol: (§2) The TNFR1 antibodies were added to the sum of TNFL and TNFS peptides prior to incubation (a). Cytotoxic activity of the sum of TNFL and TNFS peptides on L929 cells after 3 (b) and 20 (c) hours in the presence of caspase 3 and 8 inhibitors (5 μM) and necrostatin1 (5 μM) is shown. (d) Cytotoxic activity of the sum of TNFL and TNFs peptides on L929 cells after 20 h of incubation in the presence of calpains inhibitors (10 μM), cathepsins inhibitors (10 μM) and antioxidant (1 μM). n = 5 for each point, (* p-value < 0.05).
(§3) L929 cells were cultured in DMEM with 2 mm L-glutamine and 10% FCS (Invitrogen, Carlsbad, CA, USA). This cell line was obtained from the cell line collection of the N. N. Blokhin National Medical Research Center of Oncology of the Ministry of Health of Russia.
(§4) For cytotoxicity tests, target cells were cultured in 96-well plates (3 × 10^4 cells per well), and cytotoxic complexes were added (1 nM). Cytotoxicity was measured after 20 h of incubation by Cytotox 96 analysis kit (Promega, Madison, WI, USA) in accordance with the manufacturer’s protocol. […]

[3] = tested on: Tag7–Hsp70-induced cytotoxicity, L929 cells; experiment: Inhibition of cytotoxic activity of Tag7–Hsp70 complex on L929 cells; assay type: cell-based; conditions: Tag7–Hsp70 1 nM, peptide 10 nM, n = 5, complex preincubated with TNFR1 peptide / cells preincubated with TNFL; for apoptotic cytotoxic activity of Tag7–Hsp70 complex in the presence of peptide: 3 h; for necroptotic cytotoxic activity of Tag7–Hsp70 complex in the presence of peptide: 20 h
Protocol: as §1

tumor = conditions: ref [33]; cited from earlier work
Excerpt: Modifications of the TNF molecule are used to solve it.

[4] = tested on: tumor cells / cancer cells; conditions: ref [33]; cited from earlier work
Excerpt: The amino acid sequence of Tag7 seemingly lacks a peptide fragment interacting with the second site of the receptor.

Tag7 = biological target: T1, Tag7 (Homo sapiens, UniProt O75594); experiment: Microscale thermophoresis, binding to fluorescent-labeled Tag7; conditions: ratio to previously shown Kd of Tag7–sTNFR1 (42.2)
T1 construct: His tag (inferred from the pQE-31 vector only); made in house; host or cells: E. coli M15 (pREP4)
T1 sequence (O75594 22-196): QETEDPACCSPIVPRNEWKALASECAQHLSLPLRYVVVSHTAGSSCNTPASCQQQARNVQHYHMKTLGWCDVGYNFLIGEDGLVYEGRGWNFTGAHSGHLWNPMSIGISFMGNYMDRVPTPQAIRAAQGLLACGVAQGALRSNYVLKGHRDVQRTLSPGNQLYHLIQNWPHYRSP
Excerpt: The calculated Kd indicates a high affinity among the studied complexes (Table 1).
Graphs are represented as Fnorm [‰] against ligand concentration. Data represent three independent experiments and were fitted to a Kd binding model assuming a 1:1 binding stoichiometry.
Hsp70 and TNF-α were purified with Ni-NTA Agarose (Thermo Fisher Scientific, Waltham, MA, USA) in accordance with the manufacturer’s instructions.
The samples were transferred to glass capillaries (Monolith NT Capillaries) and analyzed by microscale thermophoresis on a Nano-Temperature Monolith NT 115 device (30% IR laser power). The signal quality was monitored using a NanoTemper Monolith device to detect possible autofluorescence of the ligand, aggregation or changes in the rate of photobleaching. The experiments were carried out in at least three repetitions and processed using affinity analysis software (MO Control v.1.6.1, NanoTemper Technologies GmbH, München, Germany).

sTNFR1 = conditions: read-out: Kd value for the Tag7–sTNFR1 complex; "Previously, we showed"; cited from earlier work
L929 cells [5] = experiment: Cytotoxic activity of TNF peptides on L929 cells; conditions: 20 h, n = 5, Cytotox 96 kit
Protocol: as §2, §3, §4

Compound | apoptotic cytotoxic activity of TNF in the presence of peptide [1] | necroptotic cytotoxic activity of TNF in the presence of peptide [1] | cytotoxic activity (L929 cells [2]) | apoptotic cytotoxic activity of Tag7–Hsp70 complex in the presence of peptide [3] | necroptotic cytotoxic activity of Tag7–Hsp70 complex in the presence of peptide [3] | inhibition of tumor growth / metastasis (tumor) | killing of tumor cells [4] | Kd of Tag7–TNFR1 peptide complex compared with Kd of Tag7–sTNFR1 complex (Tag7) | Kd (sTNFR1) [nM] | cytotoxic activity (L929 cells [5])
NPQAEGQLQWLNRRAN [TNFL peptide] | Both apoptosis (3 h) and necroptosis (20 h) were inhibited | Both apoptosis (3 h) and necroptosis (20 h) were inhibited | no cytotoxic effect | Both apoptosis (3 h) and necroptosis (20 h) were inhibited | Both apoptosis (3 h) and necroptosis (20 h) were inhibited |  |  |  |  | 
TNF peptide (aa. 150–170): TNF peptide (aa. 150–170), capable of killing tumor cells and inhibiting tumor growth (VLLTHTISRIAVSYQTKVNLL; UniProt P01375 150-170, looked up, fragment) |  |  |  |  |  | inhibiting tumor growth | capable of killing tumor cells |  |  | 
CC(C)C[C@H](NC(=O)[C@H](CS)NC(=O)[C@H](Cc1c[nH]cn1)NC(=O)[C@H](CCCNC(=N)N)NC(=O)[C@H](CC(C)C)NC(=O)[C@H](Cc1c[nH]cn1)NC(=O)[C@@H](N)CC(N)=O)C(=O)N[C@@H](CO)C(=O)N[C@@H](CS)C(=O)N[C@@H](CO)C(=O)N[C@@H](CCCCN)C(=O)N[C@@H](CS)C(=O)O [TNFR1 peptide] (H-NHLRHCLSCSKC-OH) | completely lose both apoptotic and necroptotic activity | completely lose both apoptotic and necroptotic activity |  | completely lose both apoptotic and necroptotic activity | completely lose both apoptotic and necroptotic activity |  |  | approximately 10 times lower |  | 
Tag7: recombinant human Tag7, innate immunity protein, TNFR1 ligand |  |  |  |  |  |  |  |  | 42.2 | 
YVLLTH [TNFS peptide] | does not inhibit apoptosis nor necroptosis | does not inhibit apoptosis nor necroptosis |  | does not inhibit apoptosis nor necroptosis | does not inhibit apoptosis nor necroptosis |  |  |  |  | no cytotoxic effect
